Consider 6 molecules from PubChem BioAssay AID1259407 (Chemical Carcinogenesis Research Information System (CCRIS), 2018).

The test system of the data set is CCRIS mutagenicity, Ames/micronucleus/aberration tests. The experiment in a line: CCRIS mutagenicity studies.
Where [1] appears, read: Test System: AMES SALMONELLA TYPHIMURIUM, Strain/Indicator: TA98, Metabolic Activation: NONE, Method: STANDARD PLATE.
Setting [2] is: Test System: AMES SALMONELLA TYPHIMURIUM, Strain/Indicator: TA100, Metabolic Activation: NONE, Method: PREINCUBATION
Setting [3] is: Test System: AMES SALMONELLA TYPHIMURIUM, Strain/Indicator: TA1535, Metabolic Activation: NONE, Method: STANDARD PLATE.
The mark [4] stands for this setting: Test System: AMES SALMONELLA TYPHIMURIUM, Strain/Indicator: TA98, Metabolic Activation: NONE, Method: PREINCUBATION

Activity calls are given as the source filed them. The rule behind the calls is not given here.

Turning to `N[C@@H](Cc1ccc(N(CCCl)CCCl)cc1)C(=O)O`, the mutagenic call reads like this: (End Point: In vivo chromosomal aberrations, Test System: Bone marrow cells, Species: Mouse, Strain/Sex: C57B1/6 / Female (base p53+/-), Route: Oral (gavage)) “active; positive”; (End Point: In vivo chromosomal aberrations, Test System: Splenocytes, Species: Mouse, Strain/Sex: C57B1/6 / Female (base p 53+/-), Route: Oral (gavage)) “active; positive”; under setting [1], “inactive; negative”; (Test System: AMES SALMONELLA TYPHIMURIUM, Strain/Indicator: TA98, Metabolic Activation: RAT, LIVER, S-9, AROCLOR 1254 (30%), Method: PREINCUBATION) “inactive; negative”; (Test System: AMES SALMONELLA TYPHIMURIUM, Strain/Indicator: TA100, Metabolic Activation: HAMSTER, LIVER, S-9, AROCLOR 1254 (30%), Method: PREINCUBATION) “active; positive”; under setting [2], “active; positive”. For the same molecule, the mutagenic call is “active; positive” (Test System: AMES SALMONELLA TYPHIMURIUM, Strain/Indicator: TA100, Metabolic Activation: NONE, Method: STANDARD PLATE); “active; positive” (Test System: AMES SALMONELLA TYPHIMURIUM, Strain/Indicator: TA100, Metabolic Activation: RAT, LIVER, S-9, AROCLOR 1254 (30%), Method: PREINCUBATION); “active; positive” (Test System: AMES SALMONELLA TYPHIMURIUM, Strain/Indicator: TA100, Metabolic Activation: RAT, LIVER, S-9, AROCLOR 1254, Method: STANDARD PLATE); “active; positive” under setting [3]; “active; positive” (Test System: AMES SALMONELLA TYPHIMURIUM, Strain/Indicator: TA1535, Metabolic Activation: RAT, LIVER, S-9, AROCLOR 1254, Method: STANDARD PLATE); “inactive; negative” (Test System: AMES SALMONELLA TYPHIMURIUM, Strain/Indicator: TA1537, Metabolic Activation: NONE, Method: STANDARD PLATE). Moreover, the mutagenic call (Test System: E. COLI, Strain/Indicator: WP2 (HCR), Metabolic Activation: S-9, Method: STANDARD PLATE) was “inactive; negative”.
With `COc1nncc2ncccc12`, the mutagenic call is “inactive; negative” under setting [4]; “inactive; negative” (Test System: AMES SALMONELLA TYPHIMURIUM, Strain/Indicator: TA98, Metabolic Activation: RAT, LIVER, S-9, PCB, Method: PREINCUBATION); “inactive; negative” under setting [2]; “inactive; negative” (Test System: AMES SALMONELLA TYPHIMURIUM, Strain/Indicator: TA100, Metabolic Activation: RAT, LIVER, S-9, PCB, Method: PREINCUBATION).
On to `C[C@]12CCC(=O)C=C1CC[C@@H]1[C@@H]2[C@@H](O)C[C@@]2(C)[C@H]1CC[C@]2(O)C(=O)CO`, for which the mutagenic call (End Point: IN VITRO CHROMOSOMAL ABERRATIONS, Test System: HUMAN PERIPHERAL BLOOD LYMPHOCYTES, Metabolic Activation: NONE) was “active; positive” and the mutagenic call (Test System: UDS RAT HEPATOCYTES, Strain/Indicator: THY INCORP (18-20 HR), Metabolic Activation: NONE, Method: LIQUID SCINTILLATION COUNTING) is “inactive; negative”.
Take `COc1cc(N)ccc1NC(C)=O`: the mutagenic call under setting [1] is “inactive; negative” and the mutagenic call (Test System: AMES SALMONELLA TYPHIMURIUM, Strain/Indicator: TA98, Metabolic Activation: RAT, LIVER, S-9, AROCLOR 1254, Method: STANDARD PLATE) was “active; positive”.
As to `CCN1CCN=N1`, the mutagenic call under setting [3] is “active; positive”.
For the molecule `CCc1ccccc1[N+](=O)[O-]`, the mutagenic call is, setting by setting: under setting [4], “inactive; negative”; (Test System: AMES SALMONELLA TYPHIMURIUM, Strain/Indicator: TA98, Metabolic Activation: RAT, LIVER, S-9, KANECHLOR 500, Method: PREINCUBATION) “inactive; negative”; under setting [2], “inactive; negative”; (Test System: AMES SALMONELLA TYPHIMURIUM, Strain/Indicator: TA100, Metabolic Activation: RAT, LIVER, S-9, KANECHLOR 500, Method: PREINCUBATION) “inactive; negative”.
